Assay [1] concerns NCI-H1975 cells. Nature of the assay: Inhibition of NCI-H1975 cell proliferation (CellTiter-Glo). To be noted: for IC50: Homo sapiens, NCI-H1975, 72 h, NCI-H1975 cell proliferation, 72 hours, CellTiter-Glo, read-out: EGFR IC50 (nM) H1975; for Selectivity of wild-type/mutant-type: ratio A431 IC50 / H1975 IC50, cells. Type of assay: cell-based. As to the method: 3. Experiment on the Inhibition of NCI-H1975 Cell Proliferation
In this experiment, the inhibitory effect of the compounds on NCI-H1975 cell proliferation was tested by a CellTiter-Glo method, and the half maximal inhibitory concentration (IC50) of the compounds on the activity of cell proliferation was determined.
The culture plate was incubated in an incubator for 16 to 24 hours (37° C., 5% CO2).
(§1) 2) Different concentrations of the test compound in a gradient dilution were added to the cells in the culture plate. The culture plate was incubated in an incubator for 72 hours (37° C., 5% CO2).
3) 50 to 100 μL of CellTiter-Glo reagent was added to each well. Then, the culture plate was shaken for 10 minutes, and left to stand at room temperature for 10 minutes.
(§2) 4) The chemiluminescence signal values of each plate were determined by a microplate reader.
5) The inhibition rates were calculated according to the chemiluminescence signal values.
6) The IC50 of the compound was obtained by curve fitting according to the inhibition rates at different concentrations.
(Cellular ATP, detected with luciferase, serves as a proxy for viable cell number.)

For assay [2], the system named is A431 cells. Nature of the assay: Inhibition of A431 cell proliferation (CellTiter-Glo). Type of assay: cell-based. As to conditions: Homo sapiens, A-431, 72 h, read-out: EGFR IC50 (nM) A431. As for the experimental part: 4. Experiment on the Inhibition of A431 Cell Proliferation
In this experiment, the inhibitory effect of the compounds on A431 cell proliferation was tested by a CellTiter-Glo method, and the half maximal inhibitory concentration (IC50) of the compounds on the activity of cell proliferation was determined.
The culture plate was incubated in the incubator for 16 to 24 hours (37° C., 5% CO2).
as §1
3) 50 to 100 μL of CellTiter-Glo reagent was added to each well. Then the culture plate was shaken for 10 minutes, and left to stand at room temperature for 10 minutes.
as §2
5) The inhibition rates were calculated according to the chemiluminescence signal values. 6) The IC50 of the compound was obtained by curve fitting according to the inhibition rates at different concentrations.

The target of assay [3] is wild-type EGFR enzyme (Homo sapiens, UniProt P00533). Nature of the assay: Enzymologic experiment of wild-type (WT) EGFR (TR-FRET). It is filed as biochemical. To be noted: ATP 0.1 to 5 uM. As for the experimental part:
2. Enzymologic Experiment of Wild-Type (WT) EGFR
In this experiment, the inhibitory effect of compounds on wild-type EGFR enzyme was tested by a fluorescence resonance energy transfer (TR-FRET) method, and the half maximal inhibitory concentration IC50 of the compounds on enzymatic activity was determined.
1) 1 to 5 μL of wild-type EGFR enzyme solution was added to a 384-well plate, and the final concentration of the enzyme was 0.1 to 1 nM.
(§3) 2) 1 to 5 μL of diluted solution in gradient of the compound was added.
(§4) 3) The mixture was incubated for 10 minutes at room temperature.
(§5) 6) 5 μL of EDTA stop solution was added to terminate the reaction for 5 minutes.
7) 5 μL of a test solution containing the labeled antibody was added, and the mixture was incubated at room temperature for 1 hour.
9) The inhibition rates were calculated from the fluorescence signal values.
(§6) 10) The IC50 of the compound was obtained by curve fitting according to the inhibition rates at different concentrations.
(Time-resolved FRET reads energy transfer from a long-lived donor to a nearby acceptor.)

The target of assay [4] is exon 20 T790M mutant-type EGFR enzyme (Homo sapiens, UniProt P00533, T790M). Nature of the assay: Enzymologic experiment of T790M mutant-type EGFR (TR-FRET). As to conditions: for IC50: T790M EGFR enzyme, TR-FRET, ATP 1 to 10 uM; for Selectivity of wild-type/mutant-type: ratio WT IC50 / T790M IC50, enzyme. Type of assay: biochemical. As to the method: as §3, §4, §5
Chain of exon 20 T790M mutant-type EGFR enzyme (P00533 25-1210 T790M): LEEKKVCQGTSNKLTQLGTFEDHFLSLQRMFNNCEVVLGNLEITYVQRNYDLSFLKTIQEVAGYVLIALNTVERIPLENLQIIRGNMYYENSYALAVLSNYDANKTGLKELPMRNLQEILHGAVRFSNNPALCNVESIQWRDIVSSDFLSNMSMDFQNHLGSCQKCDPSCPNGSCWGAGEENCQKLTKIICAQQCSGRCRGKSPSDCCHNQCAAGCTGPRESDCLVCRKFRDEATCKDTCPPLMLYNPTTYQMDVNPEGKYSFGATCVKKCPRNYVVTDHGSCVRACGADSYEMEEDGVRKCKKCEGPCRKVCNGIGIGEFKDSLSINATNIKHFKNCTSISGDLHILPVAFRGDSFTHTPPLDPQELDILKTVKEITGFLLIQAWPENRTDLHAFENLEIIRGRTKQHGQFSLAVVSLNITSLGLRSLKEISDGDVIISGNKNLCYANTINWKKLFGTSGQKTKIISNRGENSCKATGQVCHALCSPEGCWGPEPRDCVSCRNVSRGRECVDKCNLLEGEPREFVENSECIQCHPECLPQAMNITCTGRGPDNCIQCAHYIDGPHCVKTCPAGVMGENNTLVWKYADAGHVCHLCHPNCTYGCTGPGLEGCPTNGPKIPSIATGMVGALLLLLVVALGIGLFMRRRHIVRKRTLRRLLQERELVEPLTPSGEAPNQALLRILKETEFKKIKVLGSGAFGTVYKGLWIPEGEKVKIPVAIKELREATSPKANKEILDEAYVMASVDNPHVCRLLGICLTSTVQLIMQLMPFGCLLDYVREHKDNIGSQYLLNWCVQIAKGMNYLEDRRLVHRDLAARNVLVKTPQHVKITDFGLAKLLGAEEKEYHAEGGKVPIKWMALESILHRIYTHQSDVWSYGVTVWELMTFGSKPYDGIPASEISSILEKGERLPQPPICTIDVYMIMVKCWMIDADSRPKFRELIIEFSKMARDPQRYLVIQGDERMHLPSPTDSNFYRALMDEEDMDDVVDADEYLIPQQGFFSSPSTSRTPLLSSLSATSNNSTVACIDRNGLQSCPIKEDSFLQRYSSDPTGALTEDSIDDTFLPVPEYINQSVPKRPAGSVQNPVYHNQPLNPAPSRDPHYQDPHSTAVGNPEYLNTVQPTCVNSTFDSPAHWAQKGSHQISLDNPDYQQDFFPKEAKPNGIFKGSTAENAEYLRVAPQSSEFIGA
7) […] of a test solution containing the labeled antibody was added, and the mixture was incubated at room temperature for 1 hour.
9) The inhibition rates were calculated according to the fluorescence signal values.
as §6

Chain of wild-type EGFR enzyme (P00533 25-1210): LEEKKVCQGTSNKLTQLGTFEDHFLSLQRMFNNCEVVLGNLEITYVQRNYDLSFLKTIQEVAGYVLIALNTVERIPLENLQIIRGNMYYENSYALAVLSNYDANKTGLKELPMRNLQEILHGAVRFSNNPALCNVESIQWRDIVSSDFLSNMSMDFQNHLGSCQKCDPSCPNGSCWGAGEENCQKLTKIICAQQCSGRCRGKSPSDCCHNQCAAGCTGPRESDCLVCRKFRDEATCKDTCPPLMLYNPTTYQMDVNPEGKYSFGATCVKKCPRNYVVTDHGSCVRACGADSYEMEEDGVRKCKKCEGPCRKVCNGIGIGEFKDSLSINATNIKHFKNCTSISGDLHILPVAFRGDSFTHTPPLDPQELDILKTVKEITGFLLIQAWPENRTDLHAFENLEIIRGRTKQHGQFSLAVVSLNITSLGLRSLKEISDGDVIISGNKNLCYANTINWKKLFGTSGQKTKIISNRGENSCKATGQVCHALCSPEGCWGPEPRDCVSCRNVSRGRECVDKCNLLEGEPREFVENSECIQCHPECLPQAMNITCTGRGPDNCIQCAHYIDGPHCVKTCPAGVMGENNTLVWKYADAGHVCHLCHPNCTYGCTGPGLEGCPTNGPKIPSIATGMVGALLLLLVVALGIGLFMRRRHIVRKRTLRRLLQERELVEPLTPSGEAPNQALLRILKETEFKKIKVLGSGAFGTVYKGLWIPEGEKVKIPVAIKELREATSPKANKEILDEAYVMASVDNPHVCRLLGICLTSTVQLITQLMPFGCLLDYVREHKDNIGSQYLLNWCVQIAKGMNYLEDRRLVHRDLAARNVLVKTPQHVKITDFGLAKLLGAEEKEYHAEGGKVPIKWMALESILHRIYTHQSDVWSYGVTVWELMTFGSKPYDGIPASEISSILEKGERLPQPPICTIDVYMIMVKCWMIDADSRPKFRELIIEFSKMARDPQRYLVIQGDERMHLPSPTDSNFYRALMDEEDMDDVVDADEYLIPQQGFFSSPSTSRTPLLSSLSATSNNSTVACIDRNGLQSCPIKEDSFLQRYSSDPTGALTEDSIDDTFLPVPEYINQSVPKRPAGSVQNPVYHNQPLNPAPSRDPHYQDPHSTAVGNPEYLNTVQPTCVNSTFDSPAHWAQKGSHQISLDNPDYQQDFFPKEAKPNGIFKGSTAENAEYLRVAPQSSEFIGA

Usually IC50 stands for the concentration that gives 50% inhibition. With `C=CC(=O)Nc1cc(Nc2ncc(Cl)c(-c3cn(C)c4ccccc34)n2)c(OC(F)F)cc1N(C)CCN(C)C` [Example 5, N-(5-((5-chloro-4-(1-methyl-1H-indol-3-yl)pyrimidin-2-yl)amino)-4-(difluoromethoxy)-2-((2-(dimethylamino)ethyl)(methyl)amino)phenyl)acrylamide], the IC50 in assay [1] amounted to 5.9 nM; in assay [2], 212 nM; in assay [3], 0.8 nM; in assay [4] it was 0.32 nM. Besides, the values for the Selectivity of wild-type/mutant-type in assay [1] and in assay [4] were 36 and 2.5, respectively.

As to `C=CC(=O)Nc1cc(Nc2nccc(-c3c[nH]c4ccccc34)n2)c(OC(F)F)cc1N(C)CCN(C)C` [Example 8, N-(5-((4-(1H-indol-3-yl)pyrimidin-2-yl)amino)-4-(difluoromethoxy)-2-((2-(dimethylamino)ethyl)(methyl)amino)phenyl)acrylamide], the IC50 in assay [1] came out at 5.21 nM; in assay [2] it was 56.2 nM; in assay [3], 3.64 nM; in assay [4], 0.42 nM. Further, the Selectivity of wild-type/mutant-type was 10.8 in assay [1] and 8.8 in assay [4].

On to `C=CC(=O)Nc1cc(Nc2nccc(-c3cn(C)c4cc(C#N)ccc34)n2)c(OC(F)F)cc1N(C)CCN(C)C` [Example 9, N-(5-((4-(6-cyano-1-methyl-1H-indol-3-yl)pyrimidin-2-yl)amino)-4-(difluoromethoxy)-2-((2-(dimethylamino)ethyl)(methyl)amino)phenyl)acrylamide], for which the half-inhibitory concentration (IC50) in assay [1] was 4.58 nM; in assay [2], 216 nM; in assay [3], 2.12 nM; in assay [4], 0.39 nM. Further, the Selectivity of wild-type/mutant-type in assay [1] came to 47.07; in assay [4] it was 5.44.

Take `C=CC(=O)Nc1cc(Nc2nccc(-c3cn(S(=O)(=O)N(C)C)c4ccccc34)n2)c(OC(F)F)cc1N(C)CCN(C)C` [Example 21, N-(4-(difluoromethoxy)-2-((2-(dimethylamino)ethyl)(methyl)amino)-5-((4-(1-(N,N-dimethylsulfamoyl)-1H-indol-3-yl)pyrimidin-2-yl)amino)phenyl)acrylamide]: the half-inhibitory concentration (IC50) was determined as 3.23 nM in assay [1], 70.8 nM in assay [2], 0.4 nM in assay [3] and 0.3 nM in assay [4]. Besides, the Selectivity of wild-type/mutant-type came to 21.93 in assay [1] and 1.33 in assay [4].

As for `C=CC(=O)Nc1cc(Nc2nccc(-c3cn(C)c4cc(C5CC5)ccc34)n2)c(OC)cc1N(C)CCN(C)C` [Example 22, N-(5-((4-(6-cyclopropyl-1-methyl-1H-indol-3-yl)pyrimidin-2-yl)amino)-2-((2-(dimethylamino)ethyl)(methyl)amino)-4-methoxyphenyl)acrylamide], the half-maximal inhibitory concentration (IC50) turned out to be 13.2 nM in assay [1], 800 nM in assay [2], 7.44 nM in assay [3] and 0.71 nM in assay [4]. Further, the Selectivity of wild-type/mutant-type in assay [1] is 60.6; in assay [4] it was 10.4.

`C=CC(=O)Nc1cc(Nc2nccc(-c3cn(C)c4ccc(OC)cc34)n2)c(OC)cc1N(C)CCN(C)C` [Example 24, N-(2-((2-(dimethylamino)ethyl)(methyl)amino)-4-methoxy-5-((4-(5-methoxy-1-methyl-1H-indol-3-yl)pyrimidin-2-yl)amino)phenyl)acrylamide]: the IC50 in assay [1] was 8.62 nM; in assay [2], 453 nM; in assay [3], 4.02 nM; in assay [4], 3.53 nM. The Selectivity of wild-type/mutant-type in assay [1] came to 52.59; in assay [4] it was 1.1.

Turning to `C=CC(=O)Nc1cc(Nc2nccc(-c3cn(C)c4cc(OC)ccc34)n2)c(OC)cc1N(C)CCN(C)C` [Example 25, N-(2-((2-(dimethylamino)ethyl)(methyl)amino)-4-methoxy-5-((4-(6-methoxy-1-methyl-1H-indol-3-yl)pyrimidin-2-yl)amino)phenyl)acrylamide], the half-inhibitory concentration (IC50) in assay [1] is 4.56 nM; in assay [2], 93.2 nM; in assay [3], 7.11 nM; in assay [4], 0.36 nM. The Selectivity of wild-type/mutant-type in assay [1] was 20.45; in assay [4], 19.9.

Take `C=CC(=O)Nc1cc(Nc2nccc(-c3cn(C)c4cc(F)c(F)cc34)n2)c(OC)cc1N(C)CCN(C)C` [Example 28, N-(5-((4-(5,6-difluoro-1-methyl-1H-indol-3-yl)pyrimidin-2-yl)amino)-2-((2-(dimethylamino)ethyl)(methyl)amino)-4-methoxyphenyl)acrylamide]: the IC50 in assay [1] came out at 6.4 nM; in assay [2], 272 nM; in assay [3], 1.89 nM; in assay [4], 1.83 nM. For the same molecule, the values for the Selectivity of wild-type/mutant-type in assay [1] and in assay [4] were 42.52 and 1.0, respectively.

Turning to `C=CC(=O)Nc1cc(Nc2nccc(-n3ncc4ccccc43)n2)c(OC)cc1N(C)CCN(C)C` [Example 40, N-(5-((4-(1H-indazol-1-yl)pyrimidin-2-yl)amino)-2-((2-(dimethylamino)ethyl)(methyl)amino)-4-methoxyphenyl)acrylamide], the half-maximal inhibitory concentration (IC50) was determined as 1.95 nM in assay [1], 339 nM in assay [2], 3.36 nM in assay [3] and 0.39 nM in assay [4]. Moreover, the Selectivity of wild-type/mutant-type in assay [1] was determined as 174.05; in assay [4], 8.62.

For `C=CC(=O)Nc1cc(Nc2nccc(-n3ncc4c(OC)cccc43)n2)c(OC)cc1N(C)CCN(C)C` [Example 41, N-(2-((2-(dimethylamino)ethyl)(methyl)amino)-4-methoxy-5-((4-(4-methoxy-1H-indazol-1-yl)pyrimidin-2-yl)amino)phenyl)acrylamide], the IC50 in assay [1] amounted to 5.93 nM; in assay [2], 138 nM; in assay [3] it was 2.5 nM; in assay [4] it was 0.51 nM. The Selectivity of wild-type/mutant-type in assay [1] is 23.36; in assay [4], 4.90.

Consider `C=CC(=O)Nc1cc(Nc2nccc(-n3ncc4ccc(OC)cc43)n2)c(OC)cc1N(C)CCN(C)C` [Example 42, N-(2-((2-(dimethylamino)ethyl)(methyl)amino)-4-methoxy-5-((4-(6-methoxy-1H-indazol-1-yl)pyrimidin-2-yl)amino)phenyl)acrylamide], for which the IC50 amounted to 5 nM in assay [1], 76.3 nM in assay [2], 0.82 nM in assay [3] and 0.48 nM in assay [4]. Besides, the Selectivity of wild-type/mutant-type was 15.25 in assay [1] and 1.71 in assay [4].

Regarding `C=CC(=O)Nc1cc(Nc2nccc(-n3nc(C4CC4)c4ccccc43)n2)c(OC)cc1N(C)CCN(C)C` [Example 44, N-(5-((4-(3-cyclopropyl-1H-indazol-1-yl)pyrimidin-2-yl)amino)-2-((2-(dimethylamino)ethyl)(methyl)amino)-4-methoxyphenyl)acrylamide], the IC50 in assay [1] was 7.13 nM; in assay [2] it was 406 nM; in assay [3] it was 2.5 nM; in assay [4], 0.38 nM. In addition, the Selectivity of wild-type/mutant-type is on record as 56.93 in assay [1] and 6.58 in assay [4].

With `C=CC(=O)Nc1cc(Nc2ncc(Cl)c(-n3ncc4cc(OC)ccc43)n2)c(OC)cc1N(C)CCN(C)C` [Example 48, N-(5-((5-chloro-4-(5-methoxy-1H-indazol-1-yl)pyrimidin-2-yl)amino)-2-((2-(dimethylamino)ethyl)(methyl)amino)-4-methoxyphenyl)acrylamide], the half-maximal inhibitory concentration (IC50) worked out at 1.75 nM in assay [1], 102 nM in assay [2], 2.52 nM in assay [3] and 0.24 nM in assay [4]. Besides, the Selectivity of wild-type/mutant-type in assay [1] amounted to 58.06; in assay [4], 10.5.

The values are drawn from patent US10428081B2, “EGFR inhibitor, preparation method and use thereof” (Shanghai Hansoh Biomedical Co., Ltd., priority 2014, dated 2019).
